Measurements taken from US6572877B2, “Worm food composition” (Legend Laboratories Corporation, priority 2001, dated 2003).

Tested on: Lumbricus terrestris
Assay: Feeding experiment with Lumbricus terrestris (Canadian night crawler), cartons of one dozen worms plus bedding
Format: in vivo
Conditions: Carton 1
Description: The first experiment was conducted with Lumbricus terrestris. Lumbricus terrestris typically measures from 90-300 mm by 6-10 mm having a dark anterior and a pale flattened posterior. These worms live in an anecic habit meaning that they build permanent, vertical burrows that extend typically 2.5 m into the soil. Such worms feed in decaying organic material and grow and breed very slowly compared to other worms. This worm must have the burrow to return to and simply won't perform well in a worm bin. In their natural habitat such worms can live up to six years.
In the experiment, five cartons containing one dozen worms plus bedding each were kept in the refrigerator at 36° F. to 40° F. prior to the beginning the experiment. After refrigeration the following compounds were added to the specified cartons. Carton 1 was treated with a stock solution of 5 ml xanthene acid yellow 73 from a stock solution of 0.5 g xanthene acid yellow 73 in 500 ml distilled water. Carton 2 was treated with 5 grams of a stock mixture having 40 grams corn meal and 1 gram xanthene acid yellow 73. This mixture was simply added to Carton 2 and was not agitated. Carton 3 was treated with 5 grams of the same stock mixture and shaken gently to evenly disperse the mixture in Container 3. Carton 4 was treated with 5 grams from a mixture of 40 grams corn meal and 2 grams xanthene acid yellow 73 and was not agitated. […]

O=C([O-])c1ccccc1-c1c2ccc(=O)cc-2oc2cc([O-])ccc12.[Na+].[Na+] [xanthene acid yellow 73]
color of the worm (5 ml of stock solution 0.5 g in 500 ml distilled water, after 7 days): no change in the color of the worm
condition of the worms (5 ml of stock solution, after six weeks): weak and dying from lack of nutrition
